Experimental findings from US8785160B2, “Prebiotic formulations and methods of use” (Ritter Pharmaceuticals, Inc., priority 2009, dated 2014) are described below.

This assay concerns Bifidobacterium species. Briefly: Comparative growth of Bifidobacterium species and strains on 2% carbohydrate in scratch MRS. It is filed as cell-based. The settings on record: scratch MRS + 2% carbohydrate, 37 C.

For the molecule `OC[C@H]1O[C@@H](O[C@H]2[C@H](O)[C@@H](O)C(O)O[C@@H]2CO)[C@H](O)[C@@H](O)[C@H]1O` (stereo partly shown) [lactose], the “comparative growth of Bifidobacterium species on four carbohydrate sources (glucose, lactose, GOS1, GOS2)” value was “none of the Bifidobacterium strains used in these experiments grew on lactose”.
